The text below walks through data of EP0610377B1, “TRI-SUBSTITUTED TETRAHYDROFURAN ANTIFUNGALS” (SCHERING CORPORATION, priority 1991, dated 1993).

One assay concerns C. albicans C-65. In words: Candida systemic model in normal and compromised CF1 mice infected with C. albicans C-65, oral treatment. Type of assay: in vivo. As to conditions: for CFUs (GM): geometric mean of the logarithms of CFU in the kidneys. The procedure:
The compounds of Examples 23-26 and itraconazole, fluconazole, and saperconazole were tested for in vivo oral antifungal activity in a Candida systemic model using CF1 male mice , average weight 20 g, Harlan Sprague Dawley, Inc., Indianapolis, Ind. infected by IV injection into the tail vein of C. albicans C-43 (5 million CFUs). The drugs were dissolved in polyethylene glycol-200 (PEG-200) and tested by orally administering 50, 25 and 10 mpk of each drug 4 hours post infection and once daily for 3 more days. Oral efficacy was measured after four (4) days by percent survival and by the number of organisms remaining in the kidneys i.e., the Colony Forming Units (CFUs). The mice were sacrificed and the kidneys of individual mice were homogenized in sterile saline, diluted and spread onto Mycosel agar. Colony counts were determined after 48 hours at 37°C. For calculation of geometric means, mice that died during the experiment were considered to have 10^9 CFUs/kidneys (based on numerous previous experiments).
The compounds of Examples 23-24 and itraconazole, fluconazole, were tested for in vivo oral antifungal anctivity in a Candida systemic model using normal and compromised CF1 mice infected with C. albicans C-65 (5 million CFUs). The procedure of Example 33 was followed. The drugs were dissolved in polyethylene glycol-200 ("PEG-200) at room temperature and tested by orally administering 100, 50, 25, 10 and 1 mpk of each drug. Oral efficacy was measured by percent survival and by the number of organisms remaining in the kidneys (CFUs) after four days. […] The pharmaceutical composition of the preferred compound of formula IIb of Eample 24 in hydroxypropyl beta cyclodextrin ("HPβCD") having 7.4 hydroxypropyl groups per HPβCD (obtained from Pharmatec, Inc., Alachua, FL 32615) was prepared by admixing the appropriate amount of the compound IIa with a 40% (w/v) solution of HPβCD (4 g of HPβCD per 10 mL of purified water). Gentle heating was used to form a clear solution. For the 10 mpk dose, 12 mg of Ha was added to 6 mL of a 40% w/v solution of HPβCD. For dilutions, sterile water was added to the solution with mixing. The pharmaceutical composition of itraconazole and the Pharmatec HPβCD described above was prepared as follows. Propylene glycol (10 mL) was admixed with 0.95 mL of concentrated HCI at 40°-45°C with stirring. Itraconazole (2.5 g) was added thereto and stirring was continued until homogeneous. The mixture so formed was cooled to 20° to 30°C and admixed with a solution of 60 g of HPβCD in 40 mL of purified water to form a clear solution. The pH was adjusted to a value of 1.9-2.1 with 10N NaOH and sufficient purified water added (with mixing) to a final volume of 100 mL. For dilutions, sterile water was added to the itraconazole - HPβCD.

The next assay relates to Candida. In words: Candida vaginal infection in a hamster model. Type of assay: in vivo. Particulars: result in words.
[1] abbreviates: 600 Rads Mice (compromised), 10 MPK PO in PEG-200, 1/day x 4 days, day 4 post-infection.
The mark [2] stands for this setting: 600 Rads Mice (compromised), 10 MPK PO in PEG-200, day 4.
The mark [3] stands for this setting: 600 Rads Mice (compromised), 25 MPK PO in PEG-200, 1/day x 4 days, day 4 post-infection.
Setting [4] is: 600 Rads Mice (compromised), 25 MPK PO in PEG-200, day 4.
Where [5] appears, read: 600 Rads Mice (compromised), 50 MPK PO in PEG-200, 1/day x 4 days, day 4 post-infection.
The mark [6] stands for this setting: 600 Rads Mice (compromised), 50 MPK PO in PEG-200, day 4.
Where [7] appears, read: 600 Rads Mice (compromised), 100 MPK PO in PEG-200, 1/day x 4 days, day 4 post-infection.
The mark [8] stands for this setting: 600 Rads Mice (compromised), 100 MPK PO in PEG-200, day 4.
Setting [9] is: Normal Mice, 1 MPK PO in PEG-200, 1/day x 4 days, day 4 post-infection.
Where [10] appears, read: Normal Mice, 1 MPK PO in PEG-200, day 4.
[11] abbreviates: Normal Mice, 10 MPK PO in PEG-200, 1/day x 4 days, day 4 post-infection.
Setting [12] is: Normal Mice, 10 MPK PO in PEG-200, day 4.
Where [13] appears, read: Normal Mice, 25 MPK PO in PEG-200, 1/day x 4 days, day 4 post-infection.
The mark [14] stands for this setting: Normal Mice, 25 MPK PO in PEG-200, day 4.
Setting [15] is: Normal Mice, 50 MPK PO in PEG-200, 1/day x 4 days, day 4 post-infection.
The mark [16] stands for this setting: Normal Mice, 50 MPK PO in PEG-200, day 4.

As for `CC[C@@H](C)n1ncn(-c2ccc(N3CCN(c4ccc(OC[C@@H]5CO[C@@](Cn6cncn6)(c6ccc(F)cc6F)C5)cc4)CC3)cc2)c1=O` [Example 23], the “% S (Percent Survival)” value with C. albicans C-65 (setting [1]) was 0%; in the assay with C. albicans C-65 (setting [3]), 20%; with C. albicans C-65 (setting [5]) it was 30%; with C. albicans C-65 (setting [7]) it was 50%; in the assay on C. albicans C-65 (setting [9]) it was 0%; in the assay on C. albicans C-65 (setting [11]), 30%. The “% S (Percent Survival)” value in the assay on C. albicans C-65 (setting [13]) was 60%; with C. albicans C-65 (setting [15]) it was 90%. The “CFUs (GM)” value in the assay on C. albicans C-65 (setting [2]) was found to be 9.00; with C. albicans C-65 (setting [4]), 8.65; in the assay on C. albicans C-65 (setting [6]), 7.33; in the assay on C. albicans C-65 (setting [8]), 6.43; with C. albicans C-65 (setting [10]), 9.00; in the assay on C. albicans C-65 (setting [12]), 7.12. Also, the “CFUs (GM)” value came to 5.74 in the assay with C. albicans C-65 (setting [14]) and 4.69 in the assay on C. albicans C-65 (setting [16]).

On to `CC[C@H](C)n1ncn(-c2ccc(N3CCN(c4ccc(OC[C@@H]5CO[C@@](Cn6cncn6)(c6ccc(F)cc6F)C5)cc4)CC3)cc2)c1=O` [Example 24, (-)-[(5R)-cis]-4-[4-[4-[4-[[5-(2,4-Difluorophenyl)-5-(1H-1,2,4-triazol-1-ylmethyl)tetrahydrofuran-3-yl]methoxy]phenyl]-1-piperazinyl]phenyl]-2,4-dihydro-2-[(1S)-(1-methylpropyl)]-3H-1,2,4-triazol-3-one], for which the “activity against a Candida vaginal infection compared with itraconazole and saperconazole” value with Candida is listed as “more active”. Also, the “% S (Percent Survival)” value worked out at 30% in the assay with C. albicans C-65 (600 Rads Mice (compromised), 10 MPK PO in Beta-CD, 1/day x 4 days, day 4); 0% in the assay on C. albicans C-65 (setting [1]); 20% in the assay on C. albicans C-65 (setting [3]); 30% with C. albicans C-65 (setting [5]); 80% in the assay with C. albicans C-65 (setting [7]); 70% in the assay with C. albicans C-65 (Normal Mice, 1 MPK PO in Beta-CD (hydroxypropyl-beta-cyclodextrin), 1/day x 4 days, day 4). Besides, the “% S (Percent Survival)” value with C. albicans C-65 (setting [9]) was determined as 30%; in the assay with C. albicans C-65 (Normal Mice, 10 MPK PO in Beta-CD (hydroxypropyl-beta-cyclodextrin), 1/day x 4 days, day 4), 100%; in the assay with C. albicans C-65 (setting [11]), 40%; with C. albicans C-65 (setting [13]), 90%; in the assay with C. albicans C-65 (setting [15]) it was 100%. Also, the “CFUs (GM)” value was determined as 7.88 in the assay on C. albicans C-65 (600 Rads Mice (compromised), 10 MPK PO in Beta-CD, day 4); 9.00 in the assay on C. albicans C-65 (setting [2]); 8.27 in the assay with C. albicans C-65 (setting [4]); 7.58 with C. albicans C-65 (setting [6]); 6.28 in the assay on C. albicans C-65 (setting [8]); 5.97 with C. albicans C-65 (Normal Mice, 1 MPK PO in Beta-CD, day 4). The “CFUs (GM)” value in the assay on C. albicans C-65 (setting [10]) is 7.73; with C. albicans C-65 (Normal Mice, 10 MPK PO in Beta-CD, day 4), 4.94; in the assay on C. albicans C-65 (setting [12]), 7.48; in the assay on C. albicans C-65 (setting [14]) it was 4.67; in the assay with C. albicans C-65 (setting [16]), 4.44. For the same molecule, in the assay on C. albicans C-65 (doses of 50 and 25 mpk, each drug dissolved in PEG-200, result in words), the “oral activity in the Candida systemic model compared with itraconazole” value is “more active orally”. The “activity against systemic candidiasis compared with itraconazole and saperconazole” value with C. albicans C-65 (normal and compromised mice, result in words (text refers to Tables II and V)) is reported as “more active”.

Regarding `CCC(C)n1ncn(-c2ccc(N3CCN(c4ccc(OCC5COC(Cn6cncn6)(c6ccc(Cl)cc6Cl)O5)cc4)CC3)cc2)c1=O` (centres unmarked) [Itraconazole, reference compound], the “% S (Percent Survival)” value with C. albicans C-65 (600 Rads Mice (compromised), 10 MPK PO in Beta-CD-H, 1/day x 4 days, day 4) came to 30%; in the assay on C. albicans C-65 (setting [1]) it was 0%; in the assay on C. albicans C-65 (600 Rads Mice (compromised), 25 MPK PO in Beta-CD-H, 1/day x 4 days, day 4), 60%; in the assay on C. albicans C-65 (setting [3]), 0%; in the assay with C. albicans C-65 (setting [5]) it was 0%; in the assay on C. albicans C-65 (setting [7]), 20%. Besides, the “% S (Percent Survival)” value with C. albicans C-65 (setting [9]) is 0%; in the assay with C. albicans C-65 (Normal Mice, 10 MPK PO in Beta-CD-H (HPβCD vehicle for itraconazole), 1/day x 4 days, day 4), 0%; in the assay with C. albicans C-65 (setting [11]), 30%; with C. albicans C-65 (Normal Mice, 25 MPK PO in Beta-CD-H (HPβCD vehicle for itraconazole), 1/day x 4 days, day 4), 100%; in the assay with C. albicans C-65 (setting [13]), 50%; with C. albicans C-65 (setting [15]) it was 60%. Moreover, the “CFUs (GM)” value in the assay with C. albicans C-65 (600 Rads Mice (compromised), 10 MPK PO in Beta-CD-H, day 4) is given as 8.11; with C. albicans C-65 (setting [2]), 9.00; in the assay with C. albicans C-65 (600 Rads Mice (compromised), 25 MPK PO in Beta-CD-H, day 4), 7.98; with C. albicans C-65 (setting [4]), 9.00; in the assay on C. albicans C-65 (setting [6]), 9.00; in the assay on C. albicans C-65 (setting [8]), 8.45. Moreover, the “CFUs (GM)” value in the assay on C. albicans C-65 (setting [10]) is 900; in the assay on C. albicans C-65 (Normal Mice, 10 MPK PO in Beta-CD-H, day 4) it was 9.00; in the assay on C. albicans C-65 (setting [12]), 7.64; in the assay on C. albicans C-65 (Normal Mice, 25 MPK PO in Beta-CD-H, day 4), 6.19; in the assay on C. albicans C-65 (setting [14]), 6.93; with C. albicans C-65 (setting [16]) it was 5.98.
